Paper PMC7587597, “Synthesis and Biological Evaluation of 1,3-Dideazapurine-Like 7-Amino-5-Hydroxymethyl-Benzimidazole Ribonucleoside Analogues as Aminoacyl-tRNA Synthetase Inhibitors” (Molecules, 2020)

Assays:
TyrRS = target: T1, TyrRS (Escherichia coli, UniProt P0AGJ9); assay: ([…] Å); radiolabel aminoacylation inhibition (Kiapp); assay type: biochemical
T1 construct: gene tyrS

AspRS = target: T2, AspRS (Thermus thermophilus, UniProt Q5SKD2); assay: X-ray crystal structure ([…] Å), soaked crystals; assay type: binding
T2 construct: gene aspS1
T2 sequence (Q5SKD2 whole entry): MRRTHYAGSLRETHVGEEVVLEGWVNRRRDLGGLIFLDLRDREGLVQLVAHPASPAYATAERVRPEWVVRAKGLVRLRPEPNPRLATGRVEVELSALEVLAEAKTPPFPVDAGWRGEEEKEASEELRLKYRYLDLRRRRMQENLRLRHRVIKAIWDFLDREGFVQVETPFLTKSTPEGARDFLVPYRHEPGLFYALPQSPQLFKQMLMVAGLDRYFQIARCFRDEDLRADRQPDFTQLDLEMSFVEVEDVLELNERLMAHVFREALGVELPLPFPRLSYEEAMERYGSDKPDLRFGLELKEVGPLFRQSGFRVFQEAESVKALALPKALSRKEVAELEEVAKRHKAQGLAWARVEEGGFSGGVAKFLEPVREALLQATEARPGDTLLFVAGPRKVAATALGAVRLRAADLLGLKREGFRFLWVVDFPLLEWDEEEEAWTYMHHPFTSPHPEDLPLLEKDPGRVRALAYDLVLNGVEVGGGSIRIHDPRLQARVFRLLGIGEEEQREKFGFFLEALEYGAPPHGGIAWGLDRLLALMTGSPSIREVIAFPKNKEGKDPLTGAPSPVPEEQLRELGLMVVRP

SerRS [1] = target: T3, SerRS (Klebsiella pneumoniae, UniProt W9BNU9); assay: X-ray crystal structure ([…] Å), soaked crystals; assay type: binding
T3 construct: gene serS
T3 sequence (W9BNU9 1-430): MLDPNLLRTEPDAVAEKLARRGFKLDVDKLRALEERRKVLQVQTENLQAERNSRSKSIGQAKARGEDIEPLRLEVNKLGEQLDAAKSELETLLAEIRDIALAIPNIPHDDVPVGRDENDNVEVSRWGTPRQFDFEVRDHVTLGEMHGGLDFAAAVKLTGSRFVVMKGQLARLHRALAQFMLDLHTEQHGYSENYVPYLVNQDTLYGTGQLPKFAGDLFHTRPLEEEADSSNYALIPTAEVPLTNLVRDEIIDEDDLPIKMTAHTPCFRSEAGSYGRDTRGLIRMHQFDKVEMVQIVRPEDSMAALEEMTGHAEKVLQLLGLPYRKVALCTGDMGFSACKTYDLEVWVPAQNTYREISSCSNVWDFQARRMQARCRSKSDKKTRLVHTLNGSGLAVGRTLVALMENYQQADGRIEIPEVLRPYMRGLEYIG

SerRS [2] = target: T4, SerRS (Escherichia coli, UniProt P0A8L1); assay: radiolabel aminoacyl transfer assay, % inhibition at […]; assay type: biochemical
T4 construct: gene serS
T4 sequence (P0A8L1 whole entry): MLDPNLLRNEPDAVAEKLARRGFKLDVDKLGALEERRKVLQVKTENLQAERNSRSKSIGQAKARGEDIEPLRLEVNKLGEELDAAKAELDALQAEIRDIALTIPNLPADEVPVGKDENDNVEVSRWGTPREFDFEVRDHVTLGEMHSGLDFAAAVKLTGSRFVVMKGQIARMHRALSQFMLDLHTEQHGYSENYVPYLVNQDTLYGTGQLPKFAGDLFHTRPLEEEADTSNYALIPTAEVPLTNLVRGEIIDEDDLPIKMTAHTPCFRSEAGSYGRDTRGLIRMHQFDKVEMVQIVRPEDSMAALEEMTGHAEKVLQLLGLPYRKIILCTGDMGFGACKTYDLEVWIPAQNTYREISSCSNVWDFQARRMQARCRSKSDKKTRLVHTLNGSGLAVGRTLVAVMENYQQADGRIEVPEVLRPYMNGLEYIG

IleRS = target: T5, IleRS (Escherichia coli, UniProt P00956); assay: radiolabel aminoacyl transfer assay with purified enzyme (Kiapp); assay type: biochemical
T5 construct: gene ileS
T5 sequence (P00956 2-938): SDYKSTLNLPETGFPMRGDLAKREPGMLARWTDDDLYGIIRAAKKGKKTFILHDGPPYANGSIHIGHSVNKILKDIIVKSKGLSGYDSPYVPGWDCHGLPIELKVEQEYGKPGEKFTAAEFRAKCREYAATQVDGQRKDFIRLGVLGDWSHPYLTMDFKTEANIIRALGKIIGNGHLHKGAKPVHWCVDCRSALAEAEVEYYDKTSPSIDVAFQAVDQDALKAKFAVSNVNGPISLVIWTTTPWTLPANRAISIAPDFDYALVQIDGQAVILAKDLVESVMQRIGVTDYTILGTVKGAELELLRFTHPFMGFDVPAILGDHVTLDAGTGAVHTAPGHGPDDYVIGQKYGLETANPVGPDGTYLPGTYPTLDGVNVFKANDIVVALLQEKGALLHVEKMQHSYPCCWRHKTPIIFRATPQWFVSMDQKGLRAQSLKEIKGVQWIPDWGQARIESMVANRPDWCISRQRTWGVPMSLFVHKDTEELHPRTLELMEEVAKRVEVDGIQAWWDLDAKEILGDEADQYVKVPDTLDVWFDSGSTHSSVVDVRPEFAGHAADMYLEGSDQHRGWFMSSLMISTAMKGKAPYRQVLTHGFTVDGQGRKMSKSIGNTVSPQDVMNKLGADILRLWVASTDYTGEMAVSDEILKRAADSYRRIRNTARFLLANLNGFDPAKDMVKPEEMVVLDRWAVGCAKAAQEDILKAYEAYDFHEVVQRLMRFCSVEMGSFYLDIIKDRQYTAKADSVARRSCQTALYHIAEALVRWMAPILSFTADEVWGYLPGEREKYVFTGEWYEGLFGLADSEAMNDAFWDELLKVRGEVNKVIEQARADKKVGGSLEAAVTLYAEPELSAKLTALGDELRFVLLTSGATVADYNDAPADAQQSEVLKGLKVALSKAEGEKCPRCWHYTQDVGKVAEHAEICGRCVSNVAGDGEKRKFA

LeuRS [3] = target: T6, LeuRS (Escherichia coli, UniProt P07813); assay: as above; assay type: biochemical
T6 construct: gene leuS
T6 sequence (P07813 whole entry): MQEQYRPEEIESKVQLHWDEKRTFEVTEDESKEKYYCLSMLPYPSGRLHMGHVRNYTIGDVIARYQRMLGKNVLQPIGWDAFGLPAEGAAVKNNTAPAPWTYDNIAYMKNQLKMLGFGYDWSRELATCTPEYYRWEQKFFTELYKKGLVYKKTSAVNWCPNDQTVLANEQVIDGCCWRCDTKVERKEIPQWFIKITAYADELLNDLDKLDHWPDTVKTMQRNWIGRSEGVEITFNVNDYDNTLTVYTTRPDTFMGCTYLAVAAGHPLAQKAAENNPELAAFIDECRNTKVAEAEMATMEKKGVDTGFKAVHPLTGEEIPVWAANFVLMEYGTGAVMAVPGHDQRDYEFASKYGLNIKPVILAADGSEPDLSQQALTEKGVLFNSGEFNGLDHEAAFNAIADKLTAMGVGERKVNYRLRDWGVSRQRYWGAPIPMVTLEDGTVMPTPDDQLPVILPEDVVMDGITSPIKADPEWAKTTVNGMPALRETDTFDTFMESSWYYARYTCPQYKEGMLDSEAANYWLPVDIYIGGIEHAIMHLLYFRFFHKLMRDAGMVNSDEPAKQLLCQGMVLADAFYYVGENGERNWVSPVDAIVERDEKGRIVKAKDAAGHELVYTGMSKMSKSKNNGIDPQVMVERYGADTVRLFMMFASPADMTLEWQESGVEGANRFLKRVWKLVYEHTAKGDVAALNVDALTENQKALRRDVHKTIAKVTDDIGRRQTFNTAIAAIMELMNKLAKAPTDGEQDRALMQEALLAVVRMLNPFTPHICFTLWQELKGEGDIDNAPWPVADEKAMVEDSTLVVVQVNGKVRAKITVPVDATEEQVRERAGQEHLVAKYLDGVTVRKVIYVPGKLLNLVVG

LeuRS [4] = target: T7, LeuRS (Neisseria gonorrhoeae, UniProt B4RNT1); assay: X-ray crystal structure ([…] Å), soaked crystals; assay type: binding
T7 construct: gene leuS
T7 sequence (B4RNT1 whole entry): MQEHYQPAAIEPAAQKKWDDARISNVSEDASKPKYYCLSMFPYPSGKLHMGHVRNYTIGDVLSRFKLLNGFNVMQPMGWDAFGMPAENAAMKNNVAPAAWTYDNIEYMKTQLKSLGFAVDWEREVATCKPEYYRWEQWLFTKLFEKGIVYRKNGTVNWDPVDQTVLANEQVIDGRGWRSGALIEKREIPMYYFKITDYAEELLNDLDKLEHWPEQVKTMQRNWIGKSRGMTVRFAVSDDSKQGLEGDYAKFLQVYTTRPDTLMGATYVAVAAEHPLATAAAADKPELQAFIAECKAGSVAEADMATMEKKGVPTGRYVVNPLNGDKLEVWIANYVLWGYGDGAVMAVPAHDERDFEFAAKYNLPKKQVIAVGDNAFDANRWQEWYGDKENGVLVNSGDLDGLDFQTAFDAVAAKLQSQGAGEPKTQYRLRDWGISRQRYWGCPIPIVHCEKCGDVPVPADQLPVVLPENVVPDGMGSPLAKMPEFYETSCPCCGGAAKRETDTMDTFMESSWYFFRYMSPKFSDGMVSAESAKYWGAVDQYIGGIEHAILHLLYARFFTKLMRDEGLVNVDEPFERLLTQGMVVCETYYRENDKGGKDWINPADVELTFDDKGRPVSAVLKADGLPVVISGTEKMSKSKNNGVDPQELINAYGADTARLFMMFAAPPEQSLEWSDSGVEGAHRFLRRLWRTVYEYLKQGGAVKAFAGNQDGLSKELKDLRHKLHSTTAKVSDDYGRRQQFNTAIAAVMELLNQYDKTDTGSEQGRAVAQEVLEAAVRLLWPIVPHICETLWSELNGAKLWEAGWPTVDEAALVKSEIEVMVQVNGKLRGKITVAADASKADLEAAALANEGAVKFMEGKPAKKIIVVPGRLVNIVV

T1 sequence (P0AGJ9 2-424): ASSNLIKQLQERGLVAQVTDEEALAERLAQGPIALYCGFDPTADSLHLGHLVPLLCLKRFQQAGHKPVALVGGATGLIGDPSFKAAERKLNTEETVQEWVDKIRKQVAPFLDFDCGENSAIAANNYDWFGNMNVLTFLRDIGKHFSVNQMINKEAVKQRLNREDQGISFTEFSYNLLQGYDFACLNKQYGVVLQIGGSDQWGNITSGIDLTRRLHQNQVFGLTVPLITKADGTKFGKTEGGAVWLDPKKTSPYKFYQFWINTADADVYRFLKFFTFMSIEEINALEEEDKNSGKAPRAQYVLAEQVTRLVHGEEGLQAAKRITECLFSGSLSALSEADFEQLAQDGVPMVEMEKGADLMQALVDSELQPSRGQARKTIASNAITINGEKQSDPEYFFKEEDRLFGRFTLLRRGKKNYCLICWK

## Nc1cc(CO)cc2ncn([C@@H]3O[C@H](COS(=O)(=O)NC(=O)[C@@H](N)Cc4ccc(O)cc4)[C@@H](O)C3O)c12 (stereo in doubt) [32b, (2R,3S,4S,5R)-(5-(7-Amino-5-(Hydroxymethyl)-1H-Benzo[d]imidazol-1-yl)-3,4-Dihydroxytetrahydrofuran-2-yl)methyl Tyrosylsulfamate]
TyrRS
  Ki: 1230 ± 239 nM

## Nc1cc(CO)cc2ncn([C@@H]3O[C@H](COS(=O)(=O)NC(=O)[C@@H](N)CC(=O)O)[C@@H](O)[C@H]3O)c12 [32d, 3-Amino-4-((((5-(7-Amino-5-(Hydroxymethyl)-1H-Benzo[d]imidazol-1-yl)-3,4-Dihydroxytetrahydrofuran-2-yl)methoxy)sulfonyl)amino)-4-Oxobutanoic Acid]
AspRS
  X-ray crystal structure (2.15 Å), soaked crystals: T. thermophilus AspRS in complex with AspS7HMDDA

## Nc1cc(CO)cc2ncn([C@@H]3O[C@H](COS(=O)(=O)NC(=O)[C@@H](N)CO)[C@@H](O)C3O)c12 (stereo in doubt) [32c, (2R,3S,4S,5R)-(5-(7-Amino-5-(Hydroxymethyl)-1H-Benzo[d]imidazol-1-yl)-3,4-Dihydroxytetrahydrofuran-2-yl)methyl Serylsulfamate]
SerRS [1]
  X-ray crystal structure (2.18 Å), soaked crystals: K. pneumoniae SerRS in complex with SerS7HMDDA
SerRS [2]
  inhibition at 200 µM: 54%

## CC[C@H](C)[C@H](N)C(=O)NS(=O)(=O)OC[C@H]1O[C@@H](n2cnc3cc(CO)cc(N)c32)[C@@H](O)[C@@H]1O [32f, (2R,3S,4S,5R)-(5-(7-Amino-5-(Hydroxymethyl)-1H-Benzo[d]imidazol-1-yl)-3,4-Dihydroxytetrahydrofuran-2-yl)methyl Isoleucylsulfamate]
IleRS
  Ki: 10.8 ± 0.8 nM

## CC(C)C[C@H](N)C(=O)NS(=O)(=O)OC[C@H]1O[C@@H](n2cnc3cc(CO)cc(N)c32)C(O)[C@@H]1O (stereo in doubt) [32e, (2R,3S,4S,5R)-(5-(7-Amino-5-(Hydroxymethyl)-1H-Benzo[d]imidazol-1-yl)-3,4-Dihydroxytetrahydrofuran-2-yl)methyl Leucylsulfamate]
LeuRS [3]
  Ki: 21.5 ± 1.2 nM
LeuRS [4]
  X-ray crystal structure (2.25 Å), soaked crystals: N. gonorrhoeae LeuRS in complex with LeuS7HMDDA
